Source: PMC3553014, “Albumin Stimulates the Activity of the Human UDP-Glucuronosyltransferases 1A7, 1A8, 1A10, 2A1 and 2B15, but the Effects Are Enzyme and Substrate Dependent” (PLoS ONE, 2013)
Values joined by “and” are separate entries in the source; they are usually repeats but may differ in a detail not shown here. Equal values may be shown once. Read-outs that look alike come from different tables or passages of the source. One block for each molecule: values may come before it.

What was measured:
[1] = target: T1, UGT2B17 (Homo sapiens, UniProt O75795)
T1 sequence (O75795 24-530): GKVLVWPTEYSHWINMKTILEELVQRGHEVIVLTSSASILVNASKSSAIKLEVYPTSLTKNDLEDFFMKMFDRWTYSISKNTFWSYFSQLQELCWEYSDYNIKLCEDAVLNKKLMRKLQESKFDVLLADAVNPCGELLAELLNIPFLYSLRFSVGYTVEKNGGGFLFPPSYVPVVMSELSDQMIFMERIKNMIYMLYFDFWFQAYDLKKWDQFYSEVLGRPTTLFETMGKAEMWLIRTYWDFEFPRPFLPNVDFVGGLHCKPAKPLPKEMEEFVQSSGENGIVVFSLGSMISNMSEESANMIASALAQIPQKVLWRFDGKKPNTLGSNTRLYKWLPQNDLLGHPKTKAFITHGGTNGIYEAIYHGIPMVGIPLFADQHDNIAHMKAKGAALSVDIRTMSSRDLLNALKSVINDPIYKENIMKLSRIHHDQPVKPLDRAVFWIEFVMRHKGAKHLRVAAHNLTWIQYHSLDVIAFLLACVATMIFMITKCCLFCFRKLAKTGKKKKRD
Method: (§1) Recombinant human UGTs 1A1, 1A6, 1A7, 1A8, 1A10, 2A1, 2B4, 2B7 and 2B17 were expressed as His-tagged proteins in baculovirus-infected insect cells as described previously [14]. […] Protein concentrations were determined by the BCA method (Pierce Biotechnology, Rockford, IL, USA).
(§2) The protein concentrations and incubation times for the enzyme kinetic assays were selected based on preliminary assays in order to ensure that the product formation was within the linear range with respect to both protein concentration and time, and that the substrate consumption during the reaction was less than 10%. The initial velocity measurements were performed in either duplicates or triplicates and they are presented as the average values and S.E.
(§3) The glucuronidation rates by recombinant enzymes are reported as “expression normalized” values. The relative expression level of each recombinant UGT that was produced in our laboratory was determined using immunoblotting, as previously described [14], [19]. The dot blot assays were performed in triplicate and the average value was used for normalization. […] The “expression normalized” glucuronidation rates were calculated by dividing the measured glucuronidation rates with relative expression level of the each given recombinant UGT.
(§4) In assays containing BSA, the total concentrations of substrate were corrected according to the measured drug binding to BSA, under the specific conditions of each glucuronidation assay. The statistical significance of the difference in enzyme kinetics parameters upon BSA addition was tested with extra sum-of-squares F-test (included in the GraphPad software, [20]. The initial glucuronidation rates were fitted to the following equations:

[2] = target: T2, UGT1A6 (Homo sapiens, UniProt P19224); test: UGT1A6-catalyzed glucuronidation, enzyme kinetics
T2 sequence (P19224 27-532): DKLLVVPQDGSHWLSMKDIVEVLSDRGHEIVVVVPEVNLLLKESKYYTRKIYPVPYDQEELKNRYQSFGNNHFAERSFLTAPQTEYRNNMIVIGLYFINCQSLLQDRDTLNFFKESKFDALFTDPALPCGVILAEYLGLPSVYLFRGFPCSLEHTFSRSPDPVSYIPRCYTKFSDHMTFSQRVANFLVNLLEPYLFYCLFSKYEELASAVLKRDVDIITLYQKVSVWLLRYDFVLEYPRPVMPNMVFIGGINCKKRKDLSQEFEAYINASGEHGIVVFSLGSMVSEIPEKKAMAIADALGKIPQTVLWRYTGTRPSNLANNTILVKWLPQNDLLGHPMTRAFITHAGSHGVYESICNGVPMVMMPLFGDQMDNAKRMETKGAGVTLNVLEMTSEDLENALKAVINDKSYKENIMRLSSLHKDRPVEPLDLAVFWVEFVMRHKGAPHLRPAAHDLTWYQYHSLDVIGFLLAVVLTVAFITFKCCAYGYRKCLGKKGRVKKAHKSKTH
Method: as §1, §2, §3, §4

[3] = target: T3, UGT1A8 (Homo sapiens, UniProt Q9HAW9); test: UGT1A8-catalyzed glucuronidation, enzyme kinetics
T3 sequence (Q9HAW9 26-530): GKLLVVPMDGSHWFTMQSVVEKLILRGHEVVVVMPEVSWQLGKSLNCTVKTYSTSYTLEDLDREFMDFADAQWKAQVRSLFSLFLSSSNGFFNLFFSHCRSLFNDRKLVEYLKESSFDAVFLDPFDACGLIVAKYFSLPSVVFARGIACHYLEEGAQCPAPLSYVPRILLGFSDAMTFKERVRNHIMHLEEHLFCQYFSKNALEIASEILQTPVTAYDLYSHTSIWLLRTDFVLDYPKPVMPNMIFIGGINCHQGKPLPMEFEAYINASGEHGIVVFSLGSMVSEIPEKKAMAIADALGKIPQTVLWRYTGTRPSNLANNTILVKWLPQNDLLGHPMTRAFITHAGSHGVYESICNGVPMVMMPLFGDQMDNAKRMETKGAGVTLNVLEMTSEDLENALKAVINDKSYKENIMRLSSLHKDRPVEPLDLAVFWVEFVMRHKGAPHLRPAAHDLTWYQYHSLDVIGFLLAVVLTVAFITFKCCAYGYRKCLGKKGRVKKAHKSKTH
Method: as §1, §2, §3
(§5) In assays containing BSA, the total concentrations of substrate were corrected according to the measured drug binding to BSA, under the specific conditions of each glucuronidation assay.

[4] = target: T4, UGT1A1 (Homo sapiens, UniProt P22309); test: UGT1A1-catalyzed glucuronidation, enzyme kinetics
T4 sequence (P22309 26-533): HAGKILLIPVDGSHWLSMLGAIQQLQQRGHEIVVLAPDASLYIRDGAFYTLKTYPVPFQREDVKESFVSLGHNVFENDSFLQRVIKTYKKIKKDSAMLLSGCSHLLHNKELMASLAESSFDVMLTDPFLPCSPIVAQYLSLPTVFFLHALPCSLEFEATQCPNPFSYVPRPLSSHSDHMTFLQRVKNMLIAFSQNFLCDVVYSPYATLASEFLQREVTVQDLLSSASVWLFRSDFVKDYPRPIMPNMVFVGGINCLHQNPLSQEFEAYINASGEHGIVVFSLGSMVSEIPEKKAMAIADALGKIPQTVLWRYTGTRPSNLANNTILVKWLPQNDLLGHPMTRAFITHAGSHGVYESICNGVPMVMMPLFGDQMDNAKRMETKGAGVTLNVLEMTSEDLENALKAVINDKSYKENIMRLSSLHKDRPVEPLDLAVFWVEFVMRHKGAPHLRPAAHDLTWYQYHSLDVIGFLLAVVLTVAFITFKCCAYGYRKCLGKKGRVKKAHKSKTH
Method: as §1, §2, §3, §4

[5] = target: T5, BSA (Bos taurus, UniProt P02769); set-up: purchased Sigma-Aldrich (St. Louis, MO, USA); conditions: cited from earlier work
[6] = target: T5, BSA; test: in vitro; conditions: bovine
[7] = Drug binding to control insect cell membranes by RED; conditions: 0.2 mg/mL total protein in the membrane
[8] = target: T6, UGT1A7 (Homo sapiens, UniProt Q9HAW7); test: UGT1A7-catalyzed glucuronidation, enzyme kinetics; assay type: in vitro ADME; conditions: No BSA; expression level-normalized
T6 construct: His-tag; made in house; host or cells: baculovirus-infected insect cells (Sf9)
T6 sequence (Q9HAW7 26-530): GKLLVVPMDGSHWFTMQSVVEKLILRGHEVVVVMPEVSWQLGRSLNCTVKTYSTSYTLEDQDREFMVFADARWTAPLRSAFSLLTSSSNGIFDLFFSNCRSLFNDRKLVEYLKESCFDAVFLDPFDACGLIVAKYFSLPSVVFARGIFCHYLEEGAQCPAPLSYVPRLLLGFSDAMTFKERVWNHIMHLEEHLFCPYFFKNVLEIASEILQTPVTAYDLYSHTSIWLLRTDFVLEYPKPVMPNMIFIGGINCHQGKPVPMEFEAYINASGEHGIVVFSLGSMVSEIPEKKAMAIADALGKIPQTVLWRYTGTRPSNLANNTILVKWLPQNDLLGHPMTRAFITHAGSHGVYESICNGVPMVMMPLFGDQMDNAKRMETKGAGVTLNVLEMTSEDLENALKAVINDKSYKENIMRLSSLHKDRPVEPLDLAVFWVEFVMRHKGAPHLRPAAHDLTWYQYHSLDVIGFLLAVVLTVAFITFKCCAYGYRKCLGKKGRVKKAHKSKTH
Method: Protein concentrations were determined by the BCA method (Pierce Biotechnology, Rockford, IL, USA).
as §2
The glucuronidation rates by recombinant enzymes are reported as “expression normalized” values. […] The “expression normalized” glucuronidation rates were calculated by dividing the measured glucuronidation rates with relative expression level of the each given recombinant UGT.
The enzyme kinetic parameters were obtained by fitting kinetic models to the experimental data using GraphPad Prism version 5.04 for Windows (GraphPad Software Inc., San Diego, CA, USA).

[9] = target: T7, UGT1A10 (Homo sapiens, UniProt Q9HAW8); test: UGT1A10-catalyzed glucuronidation, enzyme kinetics; assay type: in vitro ADME; conditions: No BSA; expression level-normalized; estradiols: 3-glucuronide formation
T7 construct: His-tag; made in house; host or cells: baculovirus-infected insect cells (Sf9)
T7 sequence (Q9HAW8 26-530): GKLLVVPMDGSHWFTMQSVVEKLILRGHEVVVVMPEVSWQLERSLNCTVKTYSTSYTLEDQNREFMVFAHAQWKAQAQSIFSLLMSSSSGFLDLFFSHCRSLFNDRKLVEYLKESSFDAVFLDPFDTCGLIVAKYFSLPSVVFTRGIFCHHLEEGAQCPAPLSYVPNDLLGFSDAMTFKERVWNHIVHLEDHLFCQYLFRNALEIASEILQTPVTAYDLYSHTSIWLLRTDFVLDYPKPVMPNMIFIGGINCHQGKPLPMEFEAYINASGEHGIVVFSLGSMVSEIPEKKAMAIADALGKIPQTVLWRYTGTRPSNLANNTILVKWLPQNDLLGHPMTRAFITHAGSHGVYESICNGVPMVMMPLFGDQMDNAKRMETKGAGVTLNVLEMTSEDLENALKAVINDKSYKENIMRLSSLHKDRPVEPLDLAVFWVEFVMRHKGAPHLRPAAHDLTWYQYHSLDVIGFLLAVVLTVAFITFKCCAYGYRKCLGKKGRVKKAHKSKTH
Method: as §1, §2
The glucuronidation rates by recombinant enzymes are reported as “expression normalized” values. The relative expression level of each recombinant UGT that was produced in our laboratory was determined using immunoblotting, as previously described [14], [19]. […] The “expression normalized” glucuronidation rates were calculated by dividing the measured glucuronidation rates with relative expression level of the each given recombinant UGT.
as §5

[10] = substrate: Oc1ccc2cc[nH]c2c1; test: not read; conditions: other: No BSA, pH 7.4
Method: as §1, §2, §3, §4

[11] = substrate: Cc1cc(=O)oc2cc(O)ccc12; test: not read; conditions: other: No BSA, pH 7.4
Method: as §1, §2, §3, §4

T5 sequence (P02769 25-607): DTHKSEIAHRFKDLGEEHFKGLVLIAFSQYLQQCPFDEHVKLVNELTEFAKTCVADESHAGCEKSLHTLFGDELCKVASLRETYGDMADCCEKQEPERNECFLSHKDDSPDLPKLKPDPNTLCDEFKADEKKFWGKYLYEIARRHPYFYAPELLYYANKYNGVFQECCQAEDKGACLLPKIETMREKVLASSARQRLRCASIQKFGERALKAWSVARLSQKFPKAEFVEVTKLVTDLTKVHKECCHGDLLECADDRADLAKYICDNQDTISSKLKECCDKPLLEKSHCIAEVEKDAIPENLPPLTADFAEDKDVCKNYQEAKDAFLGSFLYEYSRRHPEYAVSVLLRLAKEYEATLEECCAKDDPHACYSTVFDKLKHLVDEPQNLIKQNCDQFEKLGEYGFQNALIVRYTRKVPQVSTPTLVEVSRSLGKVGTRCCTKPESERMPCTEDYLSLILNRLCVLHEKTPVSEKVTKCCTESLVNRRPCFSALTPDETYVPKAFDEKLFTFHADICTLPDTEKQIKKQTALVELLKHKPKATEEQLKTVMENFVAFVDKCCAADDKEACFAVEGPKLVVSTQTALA

Molecule: Oc1cccc2ccccc12 [1-Naphthol, 1-naphthol]
K m or S 50 ± S.E. [1]: 540±26(485–595) µM and 484±27(427–541) µM
V max ± S.E. [1]: 0.28±0.01(0.26–0.31) nmol•min^–1•mg^–1
K m or S 50 ± S.E. ([2]; 0.1% BSA, substrate concentration corrected for binding to BSA): 5.25±0.23 ^***(4.78–5.72) µM
K m or S 50 ± S.E. ([2]; No BSA): 8.07±0.48(7.08–9.06) µM
V max ± S.E. ([2]; No BSA, expression level-normalized): 6.7±0.1(6.47–6.94) nmol•min^–1•mg^–1
K m or S 50 ± S.E. [3]: 91.6±6.6(78.0–105.3) µM and 105±16(73–137) µM
V max ± S.E. [3]: 2.5±0.1(2.3–2.7) nmol•min^–1•mg^–1
K m or S 50 ± S.E. [4]: 101±11(78–123) µM and 81.6±5.1(71.0–92.1) µM
V max ± S.E. [4]: 0.11±0.01(0.10–0.13) nmol•min^–1•mg^–1

B1: UGT2A1 (Homo sapiens) (protein)
chain: GNVLIWPMEGSHWLNVKIIIDELIKKEHNVTVLVASGALFITPTSNPSLTFEIYKVPFGKERIEGVIKDFVLTWLENRPSPSTIWRFYQEMAKVIKDFHMVSQEICDGVLKNQQLMAKLKKSKFEVLVSDPVFPCGDIVALKLGIPFMYSLRFSPASTVEKHCGKVPYPPSYVPAVLSELTDQMSFTDRIRNFISYHLQDYMFETLWKSWDSYYSKALGGLLLCCPGWSAVADLGSLQPLLPGFKRFSRLSLHCSWDYRLPAGRPTTLCETMGKAEIWLIRTYWDFEFPRPYLPNFEFVGGLHCKPAKPLPKVLWRYKGKKPATLGNNTQLFDWIPQNDLLGHPKTKAFITHGGTNGIYEAIYHGVPMVGVPMFADQPDNIAHMKAKGAAVEVNLNTMTSVDLLSALRTVINEPSYKENAMRLSRIHHDQPVKPLDRAVFWIEFVMRHKGAKHLRVAAHDLTWFQYHSLDVIGFLLVCVTTAIFLVIQCCLFSCQKFGKIGKKKKRE
K0.5 [10]: 1474±121(1223–1724) µM
Vmax [10]: 0.00079 µmol/min/mg
K0.5 [11]: 48.1±4.8(38.2–57.9) µM
Vmax [11]: 0.0021 µmol/min/mg

Continued, in another order:

fraction unbound at 8 h [6]: 0.48 ± 0.01
binding to control insect cell membrane [7]: negligible
K m or S 50 ± S.E. ([3]; 0.1% BSA, substrate concentration corrected for binding to BSA, 17β-estradiol: 3-glucuronide formation): 4.70±0.62 ^**(3.42–5.99) µM
K m or S 50 ± S.E. [4]: 7.84±1.62(4.48–11.21) µM
K m or S 50 ± S.E. ([4]; 0.1% BSA, substrate concentration corrected for binding to BSA, estradiols: 3-glucuronide formation): 9.06±1.14(6.70–11.42) µM
Molecule: C[C@]12CC[C@@H]3c4ccc(O)cc4CC[C@H]3[C@@H]1CC[C@@H]2O [17β-Estradiol, 17β-estradiol]
V max ± S.E. [1]: 0.013±0.0002(0.0125–0.0132) nmol•min^–1•mg^–1
f u (unbound fraction) ([5]; 2% BSA, 25 (Walsky et al. 2012)): 0.04
V max ± S.E. [3]: 0.020±0.0003(0.019–0.021) nmol•min^–1•mg^–1

V max ± S.E. [8]: 0.15±0.01(0.14–0.16) nmol•min^–1•mg^–1
V max ± S.E. [9]: 0.91±0.01(0.89–0.94) nmol•min^–1•mg^–1
Molecule: CCN(CC)C(=O)/C(C#N)=C/c1cc(O)c(O)c([N+](=O)[O-])c1 [Entacapone]
f u (unbound fraction) ([5]; 1% BSA): < 0.1
